Laboratory results from patent US20070093469A1, “Substituted azetidine compounds as cyclooxygenase-1-cyclooxygenase-2 inhibitors, and their preparation and use as medicaments” (LABORATORIOS DEL DR. ESTEVE S.A, priority 2004, published 2007).

How the values were obtained:
Cox-1 enzyme = biological target: T1, Cox-1 enzyme (Ovis aries, UniProt P05979); experiment: Cox-1/Cox-2 enzyme assay (Cox-1); assay type: biochemical; conditions: for IC50: enzyme assay; for inhibition at 50 µM: read-out: % inhibition 5 × 10^−5 M COX-1
T1 construct: purchased Cayman Chemical 60100
T1 sequence (P05979 25-600): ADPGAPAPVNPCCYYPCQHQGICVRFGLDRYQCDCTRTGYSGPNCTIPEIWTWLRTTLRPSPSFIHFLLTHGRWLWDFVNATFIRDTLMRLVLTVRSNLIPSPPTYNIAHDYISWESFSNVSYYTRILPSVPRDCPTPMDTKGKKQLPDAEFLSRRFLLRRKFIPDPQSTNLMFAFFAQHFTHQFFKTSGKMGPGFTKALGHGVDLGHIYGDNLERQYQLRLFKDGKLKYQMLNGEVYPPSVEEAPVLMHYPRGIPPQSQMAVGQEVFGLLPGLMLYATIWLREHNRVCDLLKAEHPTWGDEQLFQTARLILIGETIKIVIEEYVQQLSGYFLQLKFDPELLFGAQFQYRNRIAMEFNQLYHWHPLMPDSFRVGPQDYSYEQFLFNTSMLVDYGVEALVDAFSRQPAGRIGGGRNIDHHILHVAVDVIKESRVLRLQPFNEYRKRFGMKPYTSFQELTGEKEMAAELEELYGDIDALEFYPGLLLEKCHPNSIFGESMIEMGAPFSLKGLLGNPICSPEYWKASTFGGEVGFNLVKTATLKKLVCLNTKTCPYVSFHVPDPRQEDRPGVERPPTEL
Experimental: (§1) I. Cox-1/Cox-2 Enzyme Assay:
(§2) The Cox-1/Cox-2 enzyme assay for the inventive azetidine compounds is carried out according to the following description:
(§3) Immediately after the addition of the substrate, the slope corresponding to the optical density increase at 480 nm is recorded for 1 minute. The reaction is monitored with a Hewlett-Packard 8452A spectrophotometer.

Cox-2 enzyme = biological target: T2, Cox-2 enzyme (Ovis aries, UniProt P79208); experiment: Cox-1/Cox-2 enzyme assay (Cox-2); assay type: biochemical; conditions: for IC50: enzyme assay
T2 construct: purchased Cayman Chemical 60120
T2 sequence (P79208 17-603): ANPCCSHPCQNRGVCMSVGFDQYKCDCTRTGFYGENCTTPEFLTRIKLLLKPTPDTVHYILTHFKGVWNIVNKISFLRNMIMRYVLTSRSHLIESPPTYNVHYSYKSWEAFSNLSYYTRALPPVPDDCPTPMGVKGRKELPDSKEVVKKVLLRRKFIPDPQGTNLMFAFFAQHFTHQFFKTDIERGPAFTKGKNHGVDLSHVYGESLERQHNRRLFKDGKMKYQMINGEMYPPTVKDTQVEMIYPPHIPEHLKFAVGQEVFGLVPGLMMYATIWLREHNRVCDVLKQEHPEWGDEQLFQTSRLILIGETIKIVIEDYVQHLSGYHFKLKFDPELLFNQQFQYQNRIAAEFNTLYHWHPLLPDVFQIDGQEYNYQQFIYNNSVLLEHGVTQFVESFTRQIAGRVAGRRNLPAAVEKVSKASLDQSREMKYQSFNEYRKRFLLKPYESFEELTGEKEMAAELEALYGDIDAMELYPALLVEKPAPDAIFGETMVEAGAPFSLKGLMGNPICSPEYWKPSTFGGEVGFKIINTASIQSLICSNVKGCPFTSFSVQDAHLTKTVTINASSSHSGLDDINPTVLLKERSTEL
Experimental: as §1, §2, §3

rats = experiment: Test for antiarthritic activity in rats (adjuvant); assay type: in vivo; conditions: Rattus norvegicus, daily oral route from day 15, read on day 25
Experimental: V: Test for Antiarthritic Activity in Rats
The test for antiarthritic activity is carried out as described in the publication of Anderson et al., J. Clin. Invest. 97, 11, 2672-2679, (1996). The respective part of the description is hereby incorporated by reference and forms part of the present disclosure.
On day 0 of the experiment, the volumes of the contralateral paws to those injected, i.e. left hind paws, are measured by means of a pletismometer, the readings of which are expressed in ml.
Next, each rat is injected the adjuvant, consisting of 1 mg of Mycobacterium butyricum suspended in 0.1 ml of mineral oil, via subplantar route in the right hind paw.
Approximately every day, and for 15 days after the injection of adjuvant, the volumes of non-injected hind paws (contralateral) are measured again. […]
On day 15 of the experiment, daily administration of the compounds to be tested via oral route is started, and on each day, the volumes of non-injected hind paws is recorded.
On Day 25 of the experiment, the body weights and non-injected hind paws (contralateral) volumes are measured for the last time, and these values were used to determine the activities.

Cox-1 = biological target: T3, Cox-1 (Homo sapiens, UniProt P23219); experiment: Cox-1 activity in human whole blood (TXB2); assay type: cell-based; conditions: read-out: hWB inhibition COX-1 IC50
T3 construct: from tissue; host or cells: fresh human whole blood
Experimental: (§4) II. Determination of Cox-1- and Cox-2-Activity in Human Whole Blood
(§5) The Cox-1- and Cox-2-activity in human whole blood is determined according to a modification of the method described in the publication of C. Brideau et al., “A human whole blood assay for clinical evaluation of biochemical efficacy of cyclooxygenase inhibitors”, Inflamm Res 1996; 45: 68-74. The respective part of the description is hereby incorporated by reference and forms part of the present disclosure.
For Cox-1 activity determination, fresh human blood is distributed in a volume of 0.5 ml to silicone Eppendorf tubes, into which 2 μl of the compound to be tested or dimethylsulfoxide (DMSO) at a final concentration of 0.4% (volume/volume). The tubes are inverted for homogenization and incubated for 1 hour at 37° C. under slight stirring. Afterwards they are centrifuged for 15 min at 10500 g and 100 μl of serum is collected. Proteins are precipitated by the addition of 400 μl of methanol to each tube, tubes were centrifuged for 10 minutes at 5000 g and 300 μl of supernatant is aspirated and then dried under nitrogen atmosphere.
Tromboxane B2 (TXB2) concentration is quantified using an assay kit (Caymann Chemical, Ann Arbor, Mich., U.S.A., Catalogue number 519031) after reconstitution into 300 μl assay buffer supplied in the assay kit.

Cox-2 = biological target: T4, Cox-2 (Homo sapiens, UniProt P35354); experiment: Cox-2 activity in human whole blood (LPS, PGE2); assay type: cell-based; conditions: read-out: hWB inhibition COX-2 IC50
T4 construct: 0.5 ml of fresh human blood; from tissue; host or cells: fresh human whole blood stimulated with E. coli 0111:B4 LPS
T4 sequence (P35354 18-604): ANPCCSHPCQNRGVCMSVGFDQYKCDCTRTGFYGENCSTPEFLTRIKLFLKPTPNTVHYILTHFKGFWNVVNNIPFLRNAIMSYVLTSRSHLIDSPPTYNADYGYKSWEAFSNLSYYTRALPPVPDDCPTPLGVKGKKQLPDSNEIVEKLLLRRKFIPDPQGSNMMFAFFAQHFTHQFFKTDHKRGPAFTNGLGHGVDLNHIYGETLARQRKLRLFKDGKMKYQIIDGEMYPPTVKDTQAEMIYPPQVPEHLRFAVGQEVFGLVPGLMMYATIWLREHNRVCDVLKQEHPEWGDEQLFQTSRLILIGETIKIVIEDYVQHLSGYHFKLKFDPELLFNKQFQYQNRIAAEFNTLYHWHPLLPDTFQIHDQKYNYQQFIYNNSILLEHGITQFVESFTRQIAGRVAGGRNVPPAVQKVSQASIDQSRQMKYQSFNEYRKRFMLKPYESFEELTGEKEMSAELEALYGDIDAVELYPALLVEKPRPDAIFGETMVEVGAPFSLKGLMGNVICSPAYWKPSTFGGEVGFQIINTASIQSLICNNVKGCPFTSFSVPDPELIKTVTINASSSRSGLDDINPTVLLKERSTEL
Experimental: as §4, §5
For Cox-2 activity determination, tubes are prepared with 2 μl of the compound to be tested or DMSO, 12 μg/ml of aspirine, 9 μl of 1% (weight/volume) sodium heparine and 0.5 ml of fresh human blood. Samples are pre-incubated at 37° C. during 15 minutes and E. coli 0111:B4 LPS (from Sigma Chemical, St. Louis, Mo. U.S.A., catalogue number L-3012) are added for incubation during 24 h at 37° C. The samples are centrifuged for 100 μl of plasma collection. 400 μl of Ethyl acetate and 1% (volume/volume) methanol are added to each sample and the tubes are stirred and centrifuged for 10 minutes at 5000 g at 4° C. 300μl of supernatant are aspirated and evaporated under nitrogen atmosphere. Prostaglandin E2 concentration is quantified using an assay kit from Cayman Chemical, Ann-Arbor, Mich., U.S.A. (Catalogue number: 514010 ) after reconstitution into 300 μl assay buffer supplied in the assay kit.

T3 sequence (P23219 24-599): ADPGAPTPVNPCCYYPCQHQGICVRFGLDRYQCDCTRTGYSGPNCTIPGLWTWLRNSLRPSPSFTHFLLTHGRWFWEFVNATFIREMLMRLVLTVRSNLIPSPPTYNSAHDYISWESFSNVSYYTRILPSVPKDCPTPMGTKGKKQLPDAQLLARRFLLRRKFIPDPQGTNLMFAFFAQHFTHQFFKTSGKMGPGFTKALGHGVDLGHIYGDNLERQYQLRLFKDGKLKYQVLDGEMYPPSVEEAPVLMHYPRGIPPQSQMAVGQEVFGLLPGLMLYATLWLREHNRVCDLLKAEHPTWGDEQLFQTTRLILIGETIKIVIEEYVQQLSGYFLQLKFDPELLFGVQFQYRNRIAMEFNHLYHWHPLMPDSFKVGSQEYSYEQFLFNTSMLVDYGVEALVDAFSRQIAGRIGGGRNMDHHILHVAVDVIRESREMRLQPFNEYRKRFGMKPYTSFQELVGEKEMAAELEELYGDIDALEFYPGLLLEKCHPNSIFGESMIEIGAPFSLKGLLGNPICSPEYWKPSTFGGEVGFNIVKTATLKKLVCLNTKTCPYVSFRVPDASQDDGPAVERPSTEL

Row | Compound | IC50 (Cox-1 enzyme) | IC50 (Cox-2 enzyme) | ED50 (rats) | IC50 (Cox-1) | IC50 (Cox-2) | melting point | inhibition at 50 µM (Cox-1 enzyme) | inhibition at 50 µM (Cox-2 enzyme; read-out: % inhibition 5 × 10^−5 M COX-2)
1 | CC(C)(C)c1cc(C(=O)N2CC(O)C2)cc(C(C)(C)C)c1O [Example 1, (3,5-di-tert-butyl-4-hydroxy-phenyl)-(3-hydroxy-azetidin-1-yl)-methanone] | 37700 nM | 1510 nM | 0.5 mg/kg | 100 nM | 200 nM | 185 to 189 °C |  | 
2 | CC1(O)CN(C(=O)c2cc(C(C)(C)C)c(O)c(C(C)(C)C)c2)C1 [Example 3, (3,5-di-tert-butyl-4-hydroxy-phenyl)-(3-hydroxy-3-methyl-azetidin-1-yl)-methanone] | 349000 nM | 3510 nM | 0.34 mg/kg | 100 nM | 100 nM | 148 to 153 °C |  | 
3 | CC(C)(C)c1cc(C(=O)N2CC(Br)C2)cc(C(C)(C)C)c1O [Example 7, (3-Bromo-azetidin-1-yl)-(3,5-di-tert-butyl-4-hydroxy-phenyl)-methanone] |  | 200 nM |  |  |  | 160 to 163 °C | 35% | 
4 | CC(C)(C)c1cc(CC(=O)N2CC(O)C2)cc(C(C)(C)C)c1O [Example 18, 2-(3,5-di-tert-butyl-4-hydroxy-phenyl)-1-(3-hydroxy-azetidin-1-yl)-ethanone] |  |  |  |  |  | 154 to 156 °C | 4% | 1%
